Laboratory results published in patent EP0272223A1, “4-Oxo-1,3-benzodioxane derivative” (FARMACEUTICI CABER S.p.A., priority 1987, dated 1988).
Where two headings read alike, the source gives them in different places.

How the values were obtained:
[1] = tested on: gastric mucosa; assay type: in vivo, rats
Protocol: The action of equimolecular doses of TF 914 and acetylsalicylic acid on gastric mucosa was evaluated by administering the products by the oral route to rats fasted for 18 hours at least.

[2] = tested on: Phenylquinone writhing in the mouse; assay: Analgesic activity - phenylquinone writhing test (Siegmund method); assay type: in vivo; settings: for Mean number of writhings: equimolecular doses os (acetylsalicylic acid 100 mg/kg, TF 914 180 mg/kg) 30 min. before i.p. phenylquinone; for N. animals showing writhing / % inhib. vs. contr.: os (acetylsalicylic acid 100 mg/kg, TF 914 180 mg/kg); for % inhib. vs. contr.: writhings
Protocol: The analgesic activity was studied by the quinone writhing test in the mouse according to the method of Siegmund E. et al. (Proc. Soc. Exp. Biol. Med., 1957, 95, 729). TF 914 was orally administered, in comparison with acetylsalicylic acid, in equimolecular doses. The two drugs were administered 30 min. before intraperitoneal injection of phenylquinone.

[3] = tested on: Carrageenin oedema in the rat; assay: Antiinflammatory activity - carrageenin oedema test (Winter method); assay type: in vivo; settings: for PAW/VOLUME ml/10 - M ± ES 2h / PAW/VOLUME ml/10 - M ± ES 4h / PAW/VOLUME ml/10 - M ± ES 6h / PAW/VOLUME ml/10 - M ± ES 8h / PAW/VOLUME ml/10 - M ± ES 24h / PAW/VOLUME ml/10 - M ± ES Basal: equimolecular doses p.o. (ASA 100 mg/kg, TF 914 180 mg/kg) 30 minutes before carrageenin; for PAW/VOLUME ml/10 - M ± ES Basal: 10 animals; for AREAS Δ % M ± ES: area of the oedema curve; for AREAS Δ % M ± ES / AREAS inhib. vs. contr.: p.o. (ASA 100 mg/kg, TF 914 180 mg/kg); for AREAS inhib. vs. contr.: inhibition of area vs. control
Protocol: Antiinflammatory activity of TF 914 was evaluated by means of the carrageenin oedema test in the rat, according to the method of Winter, Rissly, Ness (Proc. Soc. Exp. Biol. Med., 1962, 111, 544), in comparison with acetylsalicylic acid at equimolecular doses.
The compound under test and acetylsalicylic acid, as a comparison, were administered by the oral route 30 minutes before subplantar injection of carrageenin. […]
The obtained results, which are shown in table 2, evidence the marked antiinflammatory activity of TF 914, said activity being higher than that of acetylsalicylic acid in equimolecular doses, under the experimental conditions used.

[4] = tested on: carrageenin induced pleuritis; assay: Antiinflammatory activity - carrageenin induced pleuritis test (Vinegar method); assay type: in vivo, rat; settings: 5 h; for EXUDATE VOLUME ml: 100 mg/kg p.o. 1 hour before carrageenin; for N. LEUKOCYTES % inhib. vs. contr. / EXUDATE VOLUME % vs.contr. / N. LEUKOCYTES ml: 100 mg/kg p.o.; for EXUDATE VOLUME % vs.contr.: protection on exudate volume; for N. LEUKOCYTES ml: total number of leukocytes in pleuric exudate
Protocol: The antiinflammatory activity was tested by the carrageenin induced pleuritis test in the rat, according to the method of Vinegar R. et al. (Proc. Soc. Exp. Biol. Mod., 1973, 143, 3).
TF 914 and phenylbutazone as a control were administered orally in equiponderal doses, 1 hour before the carrageenin injection in the pleuric cavity.
Five hours later the animals were killed, and volume of the pleuric exudate and total number of leukocytes therein were evaluated.

[5] = tested on: bronchosecretolytic activity; assay: Bronchosecretolytic activity (Mawatari method); assay type: in vivo, male Wistar rat; settings: equimolecular doses os (TF 914 360 mg/kg, Thiola 200 mg/kg); 10 animals
Protocol: The bronchosecretolytic activity was evaluated in the male Wistar rat by oral administration of TF 914 ac cording to the method of Mawatari (Mawatari H. Kagoshima Daigaku Igaku-Zasshi- 27, 561, 1976), in comparison with Thiola®, in equimolecular doses.

[6] = Pharmacokinetics after oral administration, HPLC; assay type: in vivo; settings: rat, equimolecular doses, vs. acetylsalicylic acid and Thiola
Protocol: The pharmakinetics studies on TF 914 were carried out in the rat, in comparison with acetylsalicylic acid and Thiola®, after oral administration of equimolecular doses of the three compounds.
Measurements were performed by HPLC.

[7] = Acute toxicity by single administration (LD50, Litchfield and Wilcoxon); settings: in vivo
Protocol: Toxicity by single administrations of TF 914 was studied in the mouse and the rat, by oral and intraperitoneal route.
LD₅₀ values were calculated according to the method of Litchfield and Wilcoxon (J. Pharm. Exp. Therap., 1949, 96, 99).
The obtained results, which are summarized in table 1, evidenced that TF 914 has no toxicity.

## CC(=O)Oc1ccccc1C(=O)O [ASA, Acetylsalicylic acid, reference compound]
[1]; equimolecular doses os (ASA 100 mg/kg, TF 914 180 mg/kg), rats fasted at least 18 hours, 6 hours after treatment
  Ulcer size (mm) x ± es: 3.6 ± 1.34 mm
[1]; examination of the mucosa 6 hours after oral treatment, equimolecular doses
  gastro-injuring action (in words): marked gastro-injuring effects
[2]
  Mean number of writhings: 1.4 ± 0.9
  N. animals showing writhing: 3/10
  % inhib. vs. contr.: 89.06%
[3]
  PAW/VOLUME ml/10 - M ± ES 2h: 58,3 ± 2,5 ml/10
  PAW/VOLUME ml/10 - M ± ES 4h: 66,0 ± 3,0 ml/10
  PAW/VOLUME ml/10 - M ± ES 6h: 59,3 ± 1,7 ml/10
  PAW/VOLUME ml/10 - M ± ES 8h: 52,8 ± 2,6 ml/10
  PAW/VOLUME ml/10 - M ± ES 24h: 45,3 ± 1,5 ml/10
  PAW/VOLUME ml/10 - M ± ES Basal: 43,1 ± 1,5 ml/10
  AREAS Δ % M ± ES: 161,5 ± 20,9%
  AREAS inhib. vs. contr.: 37,0

## CCCCC1C(=O)N(c2ccccc2)N(c2ccccc2)C1=O [PHENYLBUTAZONE, phenylbutazone, reference compound]
[4]
  EXUDATE VOLUME ml: 1,75 ±2,25 ml
  N. LEUKOCYTES % inhib. vs. contr.: 36,7%
  EXUDATE VOLUME % vs.contr.: 28,9%
  N. LEUKOCYTES ml: 8,52 ±1,27 ml

## CC(SC1(C)OC(=O)c2ccccc2O1)C(=O)NCC(=O)O (stereo not drawn) [TF 914, 2-methyl-2[1-(carboxy-methyl-amino-carbonyl)ethyl]thio-4-oxo-benzodioxane-1.3]
[5]
  % increase of FlNa in comparison with controls: 35.6%
[1]; rat, in vivo, po
  gastro-injuring action (in words): substantially has no gastro-injuring action
[2]
  Mean number of writhings: 1.8 ± 1.1
  N. animals showing writhing: 3/10
  % inhib. vs. contr.: 85.93%
[6]
  bioavailability (in words): better bioavailability
  persistence in blood stream (in words): remain in blood stream for longer periods
[7]; ip, Mouse
  LD50: > 3000 mg/kg
[7]; po, Mouse, os
  LD50: > 3000 mg/kg
[7]; po, Rat, os
  LD50: > 3000 mg/kg
[4]
  EXUDATE VOLUME ml: 1,79 ±0,25 ml
  N. LEUKOCYTES % inhib. vs. contr.: 19.5%
  N. LEUKOCYTES ml: 10,84 ±1,32 ml
[4]; listed as MR 914
  N. LEUKOCYTES % inhib. vs. contr.: 19,5%
[4]; 100 mg/kg
  EXUDATE VOLUME % vs.contr.: 27.2%
[4]; listed as MR 914, 100 mg/kg
  EXUDATE VOLUME % vs.contr.: 27,2%
[3]
  PAW/VOLUME ml/10 - M ± ES 2h: 53,3 ± 1,6 ml/10
  PAW/VOLUME ml/10 - M ± ES 4h: 60,4 ± 2,0 ml/10
  PAW/VOLUME ml/10 - M ± ES 6h: 61,8 ± 2,7 ml/10
  PAW/VOLUME ml/10 - M ± ES 8h: 54,5 ± 2,8 ml/10
  PAW/VOLUME ml/10 - M ± ES 24h: 45,1 ± 1,5 ml/10
  PAW/VOLUME ml/10 - M ± ES Basal: 42,8 ± 0,7 ml/10
  AREAS Δ % M ± ES: 145,4 ± 20,4%
  AREAS inhib. vs. contr.: 43,3

## CC(S)C(=O)NCC(=O)O (stereo not drawn) [Thiola®, reference compound]
[5]
  % increase of FlNa in comparison with controls: 33.4%
